Laboratory results taken from US7408026B1, “Synthesis of proteins by native chemical ligation” (The Scripps Research Institute, priority 1998, dated 2008).

Tested on: neutrophil elastase release
Experiment: assay for neutrophil elastase release (titration)
Type: cell-based
Conditions: compared with conventionally synthesized molecule and native sequence IL-8
Excerpt: Application of the native chemical ligation method to the total synthesis of a protein molecule was illustrated by the preparation of human interleukin 8 (IL-8). (M. Baggiolini, et al., FEBS Lett. (1989): vol. 307, p 97; I. Clark-Lewis, et al., J. Biol. Chem. (1994): vol. 269, p 16075 (1994); I. Clark-Lewis, Biochemistry (1991): vol. 30, p 3128; and K. Rajarathnam, et al., (1994): Biochemistry, (1994): vol. 29, p 1689.) The 72 amino acid polypeptide chain contains four Cys residues, which form two functionally critical disulfide bridges in the native protein molecule. The two unprotected synthetic peptide segments reacted cleanly to give the full length polypeptide chain in reduced form without further chemical manipulation (9). This successful ligation was particularly significant because the 33- and 39-residue IL-8 segments each contained two Cys residues, and together encompassed 18 of the 20 genetically encoded amino acids found in proteins. The purified product was folded and oxidized as previously described, to give IL-8 with a mass precisely 4 daltons less than that of the original ligation product, indicating the formation of two disulfide bonds. The properties of this folded product were identical to those of previously studied authentic IL-8 samples.

Substance | maximal response in neutrophil elastase release
[Ala33]IL-8: 72 amino acid human interleukin 8 analogue made by native chemical ligation of IL-8(1-33)αCOSBn and IL-8(34-72), then folded by air oxidation | indistinguishable and identical to native sequence IL-8
corresponding molecule obtained by conventional synthesis: [Ala33]IL-8 obtained by conventional synthesis, used as comparator | indistinguishable and identical to native sequence IL-8
